Experimental data: PMC4263135, “A general strategy for developing cell-permeable photo-modulatable organic fluorescent probes for live-cell super-resolution imaging” (Nature Communications, 2014)
Where a SMILES comes first, the peptide text is derived from it. Side-chain parts run from the residue outwards. [ ]: non-standard residue; d: D form. The star is where a group is joined. FITC = O=C1OC2(c3ccc(O)cc3Oc3cc(O)ccc32)c2ccc(NC(=S)*)cc21; Ahx = NCCCCCC(=O)O

Columns and labels:
live BSC-1 cells = assay: Intracellular distribution of probes by confocal microscopy (Trypan blue quench); assay type: cell-based, African green monkey (Cercopithecus aethiops); details: 37 °C
Procedure: For F-actin imaging, BSC-1 cells were seeded into cell culture dishes at a density of 1.5 × 10^4 per well in growth medium (MEM supplemented with 10% FBS, 200 μl). After an overnight incubation, the cells were washed with phosphate-buffered saline (PBS, pH 7.4) for three times. A solution of the indicated probe (15 μM, 200 μl) in PBS was then added, and the cells were incubated in a 5% CO2 atmosphere at 37 °C for the indicated (5, 10, 15 and 30 min) times as mentioned in the main text. The supernatant was then discarded, and a solution of Trypan blue (200 μl, 1 mg ml^−1) in PBS was added to quench the extracellular fluorescence of the probes that were bound to either the cell membrane or the dish surface. After 2 min, Trypan blue was removed, the cells were washed gently twice with PBS and immersed in growth medium prior to optical imaging.
The fluorescence signals were detected using a Fluoview FV1000 confocal laser scanning microscope (Olympus) equipped with a × 60/1.42 numerical aperture oil-immersion objective lens (FITC channel: excitation (EX) 488 nm, emission (EM) 510–530 nm; GFP channel: EX 488 nm, EM 508–532 nm; tdEosFP channel: EX 488 nm, EM 500–522 nm; RhB channel: EX 543 nm, EM 580–630 nm; FAM channel: EX 488 nm, EM 505–540 nm and LysoTracker Red channel: excitation (EX) 543 nm, emission (EM) 560–580 nm). All fluorescence images were analyzed with Image J software.

F-actin = details: cited from earlier work
Source text: The non-fluorescent PA-RhB fluorophore has been reported to be switched on by ultraviolet light, to be thermally reverted to a dark state, and to be excited by 560-nm laser light, emitting optimally at 600 nm in fixed cells. However, it is unknown whether the live-cell environment changes the properties of PA-RhB and whether the PA-RhB fluorophore can be used for live-cell super-resolution imaging.

Compound | intracellular distribution (live BSC-1 cells; 15 μM in PBS, 5 to 30 min, confocal fluorescence) | time to enter the live cells efficiently (live BSC-1 cells; cell uptake, probe 15 μM in PBS, Trypan blue quench of extracellular fluorescence) [min] | affinity for F-actin in live cells (F-actin)
CC[C@H](C)[C@H](NC(=O)[C@H](CC(C)C)NC(=O)[C@H](CC(=O)O)NC(=O)[C@H](C)NC(=O)[C@@H](NC(=O)CNC(=O)[C@@H](N)CCSC)C(C)C)C(=O)N[C@@H](CCCCN)C(=O)N[C@@H](CCCCN)C(=O)N[C@@H](Cc1ccccc1)C(=O)N[C@@H](CCC(=O)O)C(=O)N[C@@H](CO)C(=O)N[C@H](C(=O)N[C@@H](CO)C(=O)N[C@@H](CCCCN)C(=O)N[C@@H](CCC(=O)O)C(=O)N[C@@H](CCC(=O)O)C(=O)NCC(=O)NCC(=O)NCC(=O)NCC(=O)N[C@@H](CCCCNC(=O)CCCCCNC(=S)Nc1ccc2c(c1)C(=O)OC21c2ccc(O)cc2Oc2cc(O)ccc21)C(=O)NCC(=O)NCC(=O)N[C@H](CCCNC(=N)N)C(=O)N[C@@H](CCCNC(=N)N)C(=O)N[C@H](CCCNC(=N)N)C(=O)N[C@@H](CCCNC(=N)N)C(=O)N[C@H](CCCNC(=N)N)C(=O)N[C@@H](CCCNC(=N)N)C(=O)N[C@@H](CCCNC(=N)N)C(=O)N[C@@H](CCCNC(=N)N)C(=O)O)[C@@H](C)CC [probe 1] (H-MGVADLIKKFESISKEEGGGGK([Ahx-FITC])GG[dR]R[dR]R[dR]RRR-OH) | diffuse localization throughout the cytoplasm | ≤ 5 | –
MGVADLIKKFESISKEE [Lifeact] | – | – | low affinity
